Counter-ions that a name gives are not always drawn.
Test system: SSAT translation
Test: Drug screening with mutant 6 SSAT-luciferase reporter construct in transfected HEK 293T cells
Type: cell-based, human
Settings: for activation at 10 µM / inhibition at 10 µM: Homo sapiens; for activation at 10 µM: 12 h; for inhibition at 10 µM: 10 μM test compound, HEK 293T cells transfected with mutant 6 construct, luciferase signal twelve hours after treatment
Protocol: The mutant 6 chimeric construct of Example 4 (A424C; A426C; FIG. 18G) cloned into pLEX MCS plasmid was utilized in drug screening as follows. HEK 293T cells (ATCC) were grown in DMEM supplemented with 10% fetal bovine serum and antibiotics. The HEK 293T cells were transfected with the mutant 6/pLEX MCS plasmid using HTS-Jetpei transfection reagent (Polyplus Transfection, Illkirch, France). Transfected HEK293T cells were incubated overnight at 37° C. After 24 hours, cells transfected cells in 96-well plates used for screening were treated with 10 μM of test compound from a compound library in DMSO. Untreated cells were used as the negative control, and cells treated with 10 μM DENSPM comprised a positive control. The luciferase signaling in each plate was independently analyzed using a Glomax Luminometer (Promega Corp.) by comparing the signals against the controls twelve hours after treatment.
The procedure of Example 6 was followed, screening for compounds that increase SSAT translation. The agents listed in Table 11 were identified as increasing SSAT translation by at least 35% over basal SSAT translation.

[1] = procedure of Example 6 (10 μM, mutant 6 construct, HEK 293T), increase over basal SSAT translation

SMILES | activation at 10 µM [1] | inhibition at 10 µM | other results
N=C(N)c1ccc(OCCCCCOc2ccc(C(=N)N)cc2)cc1 [Pentamidine isethionate] | 36% |  | 
COc1ccc(CCN2CCC(Nc3nc4ccccc4n3Cc3ccc(F)cc3)CC2)cc1 [Astemizole, 1-[(4-fluorophenyl)methyl]-N-[1-[2-(4-methoxyphenyl)ethyl]-4-piperidyl]benzoimidazol-2-amine] |  | 86.2% | 
C=C1C(=O)O[C@H]2[C@H]1CC/C(C)=C/CC[C@@]1(C)O[C@@H]21 [Parthenolide, (1aR,7aS,10aS,10bS)-1a,5-dimethyl-8-methylene-2,3,6,7,7a,8,10a,10b-octahydrooxireno[9,10]cyclodeca [1,2-b]furan-9(1aH)-one] |  | 99.2% | 
CCCCC(CC)CNC(=N)NC(=N)NCCCCCCNC(=N)NC(=N)NCC(CC)CCCC (stereo not drawn) [Alexidine dihydrochloride, 1,1′-Hexamethylene-bis[5-(2-ethylhexyl)biguanide] dihydrochloride] |  | 99.6% | 
COc1ccc2cc(CCC(C)=O)ccc2c1 [Nabumetone] | 59% |  | 
c1ccc2[nH]c(-c3cscn3)nc2c1 [Tiabendazole] | 39% |  | 
O=C1NCN(c2ccccc2)C12CCN(CCCC(c1ccc(F)cc1)c1ccc(F)cc1)CC2 [Fluspirilen, 8-[4,4-Bis(4-fluorphenyl)butyl]-1-phenyl-1,3,8-triazaspiro[4,5] decan-4-on] |  | 94.7% | 
CCCCNc1ccc(C(=O)OCCN(C)C)cc1.Cl [Tetracaïne hydrochloride] |  |  | % Increase in SSAT Translation [1]: 40%
Nc1[nH]c(=O)ncc1F [Flucytosine] | 35% |  | 
C[C@]12CC[C@H](O)C[C@H]1CC[C@@H]1[C@@H]2CC[C@]2(C)[C@@H](C3=CC(=O)OC3)CC[C@]12O [Digitoxigenin, 3-β,14-dihydroxy-5-β,14-β-card-20(22)-enolide] |  | 93.4% | 
CN(C)CCOC(C)(c1ccccc1)c1ccccn1 (stereo not drawn) [Doxylamine succinate] | 62% |  | 
CN(C)CCOc1ccc(/C(=C(/CCCl)c2ccccc2)c2ccccc2)cc1 [Toremifene, 2-{4-[(1Z)-4-chloro-1,2-diphenyl-but-1-en-1-yl]phenoxy}-N,N-dimethylethanamine] |  | 86.3% | 
CC(=O)O[C@H]1C[C@H](OC2[C@@H](O)C[C@H](O[C@H]3[C@@H](O)C[C@H](O[C@H]4CC[C@@]5(C)[C@H](CC[C@@H]6[C@@H]5C[C@@H](O)[C@]5(C)[C@@H](C7=CC(=O)OC7)CC[C@]65O)C4)O[C@@H]3C)O[C@@H]2C)O[C@H](C)[C@H]1O[C@@H]1O[C@H](CO)[C@@H](O)[C@H](O)[C@H]1O (stereo partly drawn) [Lanatoside C, (3β,5β,12β)-3-{[β-D-glucopyranosyl-(1→4)-3-O-acetyl-2,6-dideoxy-β-D-ribo-hexopyranosyl-(1→4)-2,6-dideoxy-β-D-ribo-hexopyranosyl-(1→4)-2,6-dideoxy-β-D-ribo-hexopyranosyl]oxy}-12,14-dihydroxycard-20(22)-enolide] |  | 91.8% | 
Nc1ccc(/N=N/c2ccccc2)c(N)n1 [Phenazopyridine hydrochloride] | 41% |  | 
Nc1nc(NC2CC2)c2ncn([C@H]3C=C[C@@H](CO)C3)c2n1 [Abacavir Sulfate] | 36% |  | 
Fc1ccc(C(OCCN2CCN(CCCc3ccccc3)CC2)c2ccc(F)cc2)cc1 [Vanoxerine dihydrochloride, 1-[2-[bis(4-fluorophenyl)methoxy]ethyl]-4-(3-phenylpropyl)piperazine•(HCl)2] |  | 96.9% | 
O=C1C=CC(=O)c2c1ccc1c2ccc2ccccc21 [Chrysene-1,4-quinone, chrysene-1,4-dione] |  | 97.3% | 
CCCCCCCCCCCCCCCC[N+](C)(C)CCN(Cc1ccc(OC)cc1)c1ncccn1 [Thonzonium bromide, N-{2-[(4-Methoxybenzyl)(pyrimidin-2-yl)amino]ethyl}-N,N-dimethylhexadecan-1-aminium bromide] |  | 99% | 

Reference: US9585380B2, “SSAT mRNA translation repression and activation” (TEMPLE UNIVERSITY—Of The Commonwealth System of Higher …, priority 2011, dated 2017)
